In article PMC12736008, “New Dimethylpyridine-3-Carboxamide Derivatives as MMP-13 Inhibitors with Anticancer Activity” (Molecules, 2025):

Assays:
A375 (melanoma) cells = experiment: MTT assay, A375; type: cell-based, human; conditions: for reduction in cancer cell viability / anticancer potential (A375): MTT, 24 h, 0.004 mM to 0.5 mM
Text: (§1) As mentioned earlier, MMP-13 is overexpressed and functionally significant in various cancers, including melanoma and colorectal carcinoma. For instance, high MMP-13 levels have been correlated with metastasis and poor survival in melanoma patients. In colorectal cancer, elevated MMP-13 activity has been observed in tumors compared to normal mucosa, and its expression is associated with a worse prognosis. Based on computational studies, four out of the eleven designed compounds showing the most promising predicted activity against MMP-13 were selected for biological evaluation. For the MTT assay, NHDF cells were used as the healthy reference cell line, while A375 (melanoma) and HT-29 (colorectal adenocarcinoma cancer) cell lines were chosen as cancer models.
(§2) Experiments were conducted using two cancer cell lines and, as a control, a normal human dermal fibroblasts (NHDF; ATCC PCS-201-012). The A375 cell line (human melanoma, ATCC CRL-1619), and HT-29 cell line (human colorectal adenocarcinoma, ATCC HTB-38) were cultured in DMEM (Dulbecco’s Modified Eagle Medium, Institute of Immunology and Experimental Therapy (IITD), Wrocław, Poland) supplemented with 1% antibiotics (10 U/mL penicillin and 10 µg/mL streptomycin, Sigma-Aldrich, St Louis, MO, USA), 1% glutamine (Sigma-Aldrich, St Louis, MO, USA) and 10% fetal bovine serum (FBS, Gibco, Grand Island, NY, USA). For NHDF cultures, α-MEM (α-Minimum Essentials Medium, Institute of Immunology and Experimental Therapy (IITD), Poland) was used with the same supplement combination as for the cancer cell lines. All cells were maintained in a humidified incubator (INCO 105, Memmert GmbH, Schwabach, Germany) at 37 °C with 5% CO2 and 95% humidity. Cells were passaged routinely by trypsinization (twice a week). For the MTT (3-(4,5-simethylthiazol-2,5-diphenyltetrazolinum bromide), Sigma, St. Louis, MO, USA) assay, cells were used after 2–4 passages, when they reached approximately 80% confluence.
(§3) All tested compounds were dissolved in DMSO to obtain stock solutions with a final concentration of 50 mM (3a, 3b, 3e), 40 mM (3f, 3g, 3i, 3j), and 35 mM (3h, 3k). […] In the next step, 10 µL of each stock solution was added to 990 µL of supplemented medium.
(§4) The MTT assay was performed in 96-well plates, with a seeding density of 1 × 10^4 cells per well. All cell lines were incubated for 24 h in their respective media: α-MEM for (NHDF cells) and DMEM for (A375 and HT-29) cells. After incubation, the medium was removed and replaced with fresh medium containing the tested compounds at concentrations ranging from 0.004 mM to 0.5 mM. […] Absorbance was measured spectrophotometrically at a wavelength of 570 nm using a BioTek SYNERGY H1 microplate reader (Agilent, Santa Clara, CA, USA).

[1] = biological target: T1, human serum albumin (HSA) (Homo sapiens, UniProt P02768); experiment: Fluorescence quenching titration of human serum albumin; type: binding; conditions: for ΔG^0 / ΔH^0 / ΔS^0: HSA complex formation; for ΔG^0: one value for 297-308 K; for ΔH^0 / ΔS^0: van't Hoff; for KSV·10^4: PBS pH 7.4
T1 construct: purchased Sigma-Aldrich
Procedure: In the human albumin, the amino acid residue Trp214 in subdomain IIA is of particular significance in structural studies. Subdomain IIA is responsible for binding many drugs and endogenous compounds [37]. To investigate the interactions between HSA and the tested compounds, fluorescence spectroscopy was conducted. […] The Stern–Volmer constant with inner filter correction was applied, based on changes in absorbance and in the fluorescence intensity of excited Trp214 residues located in the protein binding pocket:(1) F0/Fcorr=1+kqτQ=1+KSV[Q] (2) Fcorr=Fobs10^(Aex+Aem)/2 where F0 is maximum fluorescence intensities protein without a quencher, Fcorr is the corrected florescence intensities, kq is the quenching rate constant of the molecules, τ is the average lifetime of the molecule (for biomolecules τ = 10^−8 s), [Q] is the concentration of quencher, Ksv is the Stern-Volmer constant, Fobs is the steady-state fluorescence intensity at the maximum wavelength with the quencher, Aex and Aem are the absorbance at excitation and emission wavelengths, respectively. The quenching rate constants (kq) are higher than 2 × 10^10 dm^3 mol^−1 s^−1; therefore, the quenching mechanism is static and supports complex formation.
The binding parameters were evaluated by a double logarithm regression curve by Equation (3):(3) logF0−F/F=logKb[…] where F0 is the maximum fluorescence intensity of a protein without a quencher, F is the maximum fluorescence intensity of the protein after a quencher addition, Kb is the binding constant, [Q] is the molar concentration of the quencher, and n is the binding stoichiometry.
The compounds studied can be arranged in accordance with the value of Kb, the strength of their interaction with HSA. In this ranking, 3d is the highest ranked, followed by 3c, 3b, and 3g in descending order of compatibility. Then, using Equations (4), and van’t Hoff function (5), the thermodynamic parameters of complex formation were determined and collected in Table 5, and Figure 10:(4) logKb=−ΔH^0/RT+[…] (5) ΔG^0=ΔH^0−TΔS^0=−RTlnKb where R is the gas constant (8.314 J mol^−1 K^−1), T is temperature, Kb is the binding constant, ΔH^0 is enthalpy, ΔS^0 is entropy, and ΔG^0 is free energy change.
To perform the UV-Vis and fluorometric titration measurements, all compounds were dissolved in dimethyl sulfoxide (DMSO) at a concentration of 1⸱10^−3 mol/dm^3. A 0.01 mol/dm^3 phosphate-buffered saline (PBS) solution with a pH of 7.4 (Sigma-Aldrich Chemie GmbH, St. Louis, MO, USA) was used to prepare a 1 × 10^−6 mol/dm^3 solution of human serum albumin (HSA) (Sigma-Aldrich Chemie GmbH, St. Louis, MO, USA). The fluorescence study was performed on a Cary Eclipse 500 spectrophotometer (Agilent, Santa Clara, CA, USA). The fluorometric spectra were recorded in a quartz cuvette with a 10 mm path length over an emission range of 280–400 nm, with an excitation wavelength of 280 nm and a PMT voltage of 560 V. The UV-Vis spectra were recorded on a Jasco V-750 spectrophotometer (Jasco, Tokyo, Japan) with the following parameters: a wavelength range of 190–400 nm, a data interval of 0.1 nm, a scan speed of 400 nm/min, and automatic baseline correction. Quartz cuvettes with an optical path length of 10 mm were used. […] The titrations of the protein solution with the studied compounds were performed in 0.5 molar increments, from 0.0 to 2.0 followed by 1.0 increments up to a final molar ratio of 11.0.

NHDF cells = experiment: MTT assay, NHDF; type: cell-based, human; conditions: 24 h, 0.004 mM to 0.5 mM
Text: as §1, §2, §3, §4

T1 sequence (P02768 25-609): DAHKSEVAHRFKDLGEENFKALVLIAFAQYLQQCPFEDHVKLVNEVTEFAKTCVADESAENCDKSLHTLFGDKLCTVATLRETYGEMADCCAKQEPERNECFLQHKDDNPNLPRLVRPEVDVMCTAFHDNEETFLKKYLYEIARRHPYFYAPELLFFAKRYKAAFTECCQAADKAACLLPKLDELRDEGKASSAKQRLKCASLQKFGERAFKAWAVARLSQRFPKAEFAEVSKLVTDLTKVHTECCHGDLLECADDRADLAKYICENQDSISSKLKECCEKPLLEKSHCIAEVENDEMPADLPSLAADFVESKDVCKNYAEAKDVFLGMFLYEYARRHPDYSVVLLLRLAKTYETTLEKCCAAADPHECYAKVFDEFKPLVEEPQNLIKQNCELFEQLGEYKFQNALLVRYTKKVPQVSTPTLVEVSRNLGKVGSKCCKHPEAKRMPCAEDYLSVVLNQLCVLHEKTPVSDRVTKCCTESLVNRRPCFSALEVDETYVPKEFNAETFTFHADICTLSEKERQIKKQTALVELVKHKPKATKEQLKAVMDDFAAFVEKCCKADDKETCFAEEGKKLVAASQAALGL

| SMILES | selectivity ratio A375:NHDF (A375 (melanoma) cells; at a concentration of 0.5 mM) | ΔG^0 [1] [kcal/mol] | ΔH^0 [1] [kcal/mol] | ΔS^0 [1] [J·mol^−1·K^−1] | kq·10^12 ([1]; T 297 K) | n (binding stoichiometry) ([1]; T 297 K) | KSV·10^4 ([1]; T 297 K) | kq·10^12 ([1]; T 303 K) | n (binding stoichiometry) ([1]; T 303 K) | KSV·10^4 ([1]; T 303 K) | kq·10^12 ([1]; T 308 K) | n (binding stoichiometry) ([1]; T 308 K) | KSV·10^4 ([1]; T 308 K) | toxicity toward healthy NHDF cells (NHDF cells) | reduction in cancer cell viability / anticancer potential (A375) (A375 (melanoma) cells) |
| --- | --- | --- | --- | --- | --- | --- | --- | --- | --- | --- | --- | --- | --- | --- | --- |
| Cc1cc(C)c(C(=O)NCC(=O)NCc2ccc(Oc3ccccc3)cc2)c(S)n1 [Compound 3b, 4,6-dimethyl-N-{2-[(4-phenoxybenzyl)amino]-2-oxoethyl}-2-sulfanylpyridine-3-carboxamide] | 0.56 | -3.176 | -96.119 | −1282.70 | 1.21 10^12 dm^3·mol^−1·s^−1 | 0.89 | 1.21 10^4 dm^3·mol^−1 | 1.06 10^12 dm^3·mol^−1·s^−1 | 0.60 | 1.06 10^4 dm^3·mol^−1 | 0.86 10^12 dm^3·mol^−1·s^−1 | 0.44 | 0.86 10^4 dm^3·mol^−1 | lowest toxicity toward healthy cells |  |
| Cc1cc(C)c(C(=O)NCC(=O)NCc2ccc(Cl)cc2)c(S)n1 [Compound 3c, N-{2-[(4-chlorobenzyl)amino]-2-oxoethyl}-4,6-dimethyl-2-sulfanylpyridine-3-carboxamide] |  | -4.319 | -45.696 | −571.09 | 2.69 10^12 dm^3·mol^−1·s^−1 | 0.84 | 2.69 10^4 dm^3·mol^−1 | 2.34 10^12 dm^3·mol^−1·s^−1 | 0.74 | 2.34 10^4 dm^3·mol^−1 | 2.07 10^12 dm^3·mol^−1·s^−1 | 0.65 | 2.07 10^4 dm^3·mol^−1 | highest toxicity toward healthy NHDF | strongest reduction in cancer cell viability |
| Cc1cc(C)c(C(=O)NCC(=O)NCc2ccccc2Cl)c(S)n1 [Compound 3d, N-{2-[(2-chlorobenzyl)amino]-2-oxoethyl}-4,6-dimethyl-2-sulfanylpyridine-3-carboxamide] |  | -4.156 | -45.471 | −570.21 | 2.51 10^12 dm^3·mol^−1·s^−1 | 0.82 | 2.51 10^4 dm^3·mol^−1 | 2.13 10^12 dm^3·mol^−1·s^−1 | 0.73 | 2.13 10^4 dm^3·mol^−1 | 1.88 10^12 dm^3·mol^−1·s^−1 | 0.63 | 1.88 10^4 dm^3·mol^−1 | highest toxicity toward healthy NHDF | strongest reduction in cancer cell viability |
| Cc1cc(C)c(C(=O)NCC(=O)NCc2ccccc2)c(S)n1 [Compound 3g, 4,6-dimethyl-N-[2-(benzylamino)-2-oxoethyl]-2-sulfanylpyridine-3-carboxamide] |  | -2.12 | -44.077 | −579.14 | 0.87 10^12 dm^3·mol^−1·s^−1 | 0.60 | 0.87 10^4 dm^3·mol^−1 | 0.72 10^12 dm^3·mol^−1·s^−1 | 0.54 | 0.72 10^4 dm^3·mol^−1 | 0.63 10^12 dm^3·mol^−1·s^−1 | 0.42 | 0.63 10^4 dm^3·mol^−1 |  | only moderate anticancer potential |
